Laboratory results reported in US6906205B2, “Spiro and dispiro 1,2,4-trioxolane antimalarials” (Medicines for Malaria Venture MMV, priority 2002, dated 2005).
Values after ≈ are worked out from the molar mass of the structure shown.

tested on: ANKA strain of P. berghei; assay: single dose STI in vivo screen in infected mice; parameters: species or system Plasmodium berghei; conditions: percent reduction in parasitemia day 3 post-infection; single 3 mg/kg po in SSV
Experimental: In the single dose STI in vivo screen, Moro SPF or NMRI mice infected with the ANKA strain of P. berghei (groups of 3-5 mice) were treated on day one post-infection with trioxolanes dissolved or suspended in 3% ethanol and 7% Tween 80. […] SSV consists of 0.5% w/v CMC, 0.5% v/v benzyl alcohol, 0.4% v/v Tween 80, and 0.9% w/v sodium chloride in water. Antimalarial activity was measured by percent reduction in parasitemia on day three post-infection and survival times compared to an untreated control group. Survival to day 30 post-infection is considered to be a cure. […] Other factors influencing antimalarial activity include the stability of carbon radicals formed by β-scission subsequent to the initial electron transfer to the peroxide bond and the influence of steric effects remote from the peroxide bond on the interactions between carbon radicals and potential drug targets.

| SMILES | Activity (%) 3 mg/kg SSV po [%] |
| --- | --- |
| C1C2CC3CC1CC(C2)[C@]31OO[C@@]2(CC[C@H](Cc3nnn[nH]3)CC2)O1 [OZ363] | 10 |
| O=C(O)CCC(=O)NC[C@H]1CC[C@]2(CC1)OO[C@]1(O2)C2CC3CC(C2)CC1C3 [OZ300] | 0 |
| O=C(C[C@H]1CC[C@]2(CC1)OO[C@]1(O2)C2CC3CC(C2)CC1C3)NCc1ccccn1 [OZ295] | 35 |

same assay, conditions: percent reduction in parasitemia day 3 post-infection; single 10 mg/kg po in 3% ethanol and 7% Tween 80; mice

| SMILES | Activity (%) po [%] |
| --- | --- |
| COC1(c2ccc(F)cc2)CCC2(CC1)OOC1(O2)C2CC3CC(C2)CC1C3 (stereo not shown) [OZ77] | 99.9 |
| N=C(N)NC[C@H]1CC[C@]2(CC1)OOC1(O2)C2CC3CC(C2)CC1C3 (stereo partly shown) [OZ237] | 5 |
| c1cc(CN2CCC3(CC2)OOC2(O3)C3CC4CC(C3)CC2C4)ccn1 (stereo not shown) [OZ216] | 62 |

same assay, conditions: percent reduction in parasitemia day 3 post-infection; single 10 mg/kg po in SSV

| SMILES | Activity (%) 10 mg/kg SSV po [%] |
| --- | --- |
| C1C2CC3CC1CC(C2)[C@]31OO[C@@]2(CC[C@H](Cc3nnn[nH]3)CC2)O1 [OZ363] | 40 |
| O=C(O)CCC(=O)NC[C@H]1CC[C@]2(CC1)OO[C@]1(O2)C2CC3CC(C2)CC1C3 [OZ300] | 6 |
| O=C(C[C@H]1CC[C@]2(CC1)OO[C@]1(O2)C2CC3CC(C2)CC1C3)NCc1ccccn1 [OZ295] | 47 |

same assay, conditions: percent reduction in parasitemia day 3 post-infection; single 10 mg/kg sc in 3% ethanol and 7% Tween 80; mice

| SMILES | Activity (%) sc [%] |
| --- | --- |
| COC1(c2ccc(F)cc2)CCC2(CC1)OOC1(O2)C2CC3CC(C2)CC1C3 (stereo not shown) [OZ77] | 98 |
| N=C(N)NC[C@H]1CC[C@]2(CC1)OOC1(O2)C2CC3CC(C2)CC1C3 (stereo partly shown) [OZ237] | 52 |
| c1cc(CN2CCC3(CC2)OOC2(O3)C3CC4CC(C3)CC2C4)ccn1 (stereo not shown) [OZ216] | 99.02 |

same assay, conditions: percent reduction in parasitemia day 3 post-infection; single po dose in standard suspending vehicle (SSV); mice

| SMILES | Activity (%) SSVpo [%] |
| --- | --- |
| COC1(c2ccc(F)cc2)CCC2(CC1)OOC1(O2)C2CC3CC(C2)CC1C3 (stereo not shown) [OZ77] | 74 |
| N=C(N)NC[C@H]1CC[C@]2(CC1)OOC1(O2)C2CC3CC(C2)CC1C3 (stereo partly shown) [OZ237] | 9 |
| c1cc(CN2CCC3(CC2)OOC2(O3)C3CC4CC(C3)CC2C4)ccn1 (stereo not shown) [OZ216] | 69 |

same assay, conditions: single 3 mg/kg po in SSV

| SMILES | Survival (days) 3 mg/kg SSV po [days] |
| --- | --- |
| C1C2CC3CC1CC(C2)[C@]31OO[C@@]2(CC[C@H](Cc3nnn[nH]3)CC2)O1 [OZ363] | 6.0 |

same assay, conditions: single 10 mg/kg po in 3% ethanol and 7% Tween 80; untreated control 5.6 ± 0.3

| SMILES | Survival (days) po [days] |
| --- | --- |
| COC1(c2ccc(F)cc2)CCC2(CC1)OOC1(O2)C2CC3CC(C2)CC1C3 (stereo not shown) [OZ77] | 9.0 |
| N=C(N)NC[C@H]1CC[C@]2(CC1)OOC1(O2)C2CC3CC(C2)CC1C3 (stereo partly shown) [OZ237] | 6.0 |
| c1cc(CN2CCC3(CC2)OOC2(O3)C3CC4CC(C3)CC2C4)ccn1 (stereo not shown) [OZ216] | 6.3 |

same assay, conditions: single 10 mg/kg po in SSV

| SMILES | Survival (days) 10 mg/kg SSV po [days] |
| --- | --- |
| C1C2CC3CC1CC(C2)[C@]31OO[C@@]2(CC[C@H](Cc3nnn[nH]3)CC2)O1 [OZ363] | 6.8 |
| O=C(O)CCC(=O)NC[C@H]1CC[C@]2(CC1)OO[C@]1(O2)C2CC3CC(C2)CC1C3 [OZ300] | 6.8 |
| O=C(C[C@H]1CC[C@]2(CC1)OO[C@]1(O2)C2CC3CC(C2)CC1C3)NCc1ccccn1 [OZ295] | 7.0 |

same assay, conditions: single 10 mg/kg sc in 3% ethanol and 7% Tween 80; untreated control 5.6 ± 0.3

| SMILES | Survival (days) sc [days] |
| --- | --- |
| COC1(c2ccc(F)cc2)CCC2(CC1)OOC1(O2)C2CC3CC(C2)CC1C3 (stereo not shown) [OZ77] | 8.3 |
| N=C(N)NC[C@H]1CC[C@]2(CC1)OOC1(O2)C2CC3CC(C2)CC1C3 (stereo partly shown) [OZ237] | 6.7 |
| c1cc(CN2CCC3(CC2)OOC2(O3)C3CC4CC(C3)CC2C4)ccn1 (stereo not shown) [OZ216] | 11.0 |

same assay, conditions: single po dose in SSV; untreated control 5.6 ± 0.3

| SMILES | Survival (days) SSVpo [days] |
| --- | --- |
| COC1(c2ccc(F)cc2)CCC2(CC1)OOC1(O2)C2CC3CC(C2)CC1C3 (stereo not shown) [OZ77] | 6.0 |
| N=C(N)NC[C@H]1CC[C@]2(CC1)OOC1(O2)C2CC3CC(C2)CC1C3 (stereo partly shown) [OZ237] | 6.0 |
| c1cc(CN2CCC3(CC2)OOC2(O3)C3CC4CC(C3)CC2C4)ccn1 (stereo not shown) [OZ216] | 7.7 |

tested on: P. falciparum NF54 strain (sensitive to standard antimalarials); assay: semiautomated microdilution assay, [3H]-hypoxanthine incorporation, NF54 strain; assay type: cell-based, Plasmodium falciparum; conditions: NF54 strain, 72 h incubation
Experimental: (§1) Various OZ compounds were tested by the semiautomated microdilution assay against intraerythrocytic forms of Plasmodium falciparum derived from asynchronous stock cultures.
(§2) Fifty percent inhibitory concentration (IC50) were estimated by Logit regression analysis.

| SMILES | IC50 (ng/ml) NF54 [ng/mL] |
| --- | --- |
| COC1(c2ccc(F)cc2)CCC2(CC1)OOC1(O2)C2CC3CC(C2)CC1C3 (stereo not shown) [OZ77] | 2.2 (≈ 0.00566 µM) |
| N=C(N)NC[C@H]1CC[C@]2(CC1)OOC1(O2)C2CC3CC(C2)CC1C3 (stereo partly shown) [OZ237] | 7.1 (≈ 0.0212 µM) |
| c1cc(CN2CCC3(CC2)OOC2(O3)C3CC4CC(C3)CC2C4)ccn1 (stereo not shown) [OZ216] | 0.67 (≈ 0.00188 µM) |
| C1C2CC3CC1CC(C2)[C@]31OO[C@@]2(CC[C@H](Cc3nnn[nH]3)CC2)O1 [OZ363] | 55 (≈ 0.159 µM) |
| O=C(O)CCC(=O)NC[C@H]1CC[C@]2(CC1)OO[C@]1(O2)C2CC3CC(C2)CC1C3 [OZ300] | 97 (≈ 0.247 µM) |
| O=C(C[C@H]1CC[C@]2(CC1)OO[C@]1(O2)C2CC3CC(C2)CC1C3)NCc1ccccn1 [OZ295] | 0.75 (≈ 0.00182 µM) |

tested on: P. falciparum K1 strain (Thailand resistant to chloroquine); assay: semiautomated microdilution assay, [3H]-hypoxanthine incorporation, K1 strain; assay type: cell-based, Plasmodium falciparum; conditions: K1 strain, 72 h incubation
Experimental: as §1, §2

| SMILES | IC50 (ng/ml) K1 [ng/mL] |
| --- | --- |
| COC1(c2ccc(F)cc2)CCC2(CC1)OOC1(O2)C2CC3CC(C2)CC1C3 (stereo not shown) [OZ77] | 1.4 (≈ 0.0036 µM) |
| N=C(N)NC[C@H]1CC[C@]2(CC1)OOC1(O2)C2CC3CC(C2)CC1C3 (stereo partly shown) [OZ237] | 5.7 (≈ 0.017 µM) |
| c1cc(CN2CCC3(CC2)OOC2(O3)C3CC4CC(C3)CC2C4)ccn1 (stereo not shown) [OZ216] | 0.40 (≈ 0.00112 µM) |
| C1C2CC3CC1CC(C2)[C@]31OO[C@@]2(CC[C@H](Cc3nnn[nH]3)CC2)O1 [OZ363] | 46 (≈ 0.133 µM) |
| O=C(O)CCC(=O)NC[C@H]1CC[C@]2(CC1)OO[C@]1(O2)C2CC3CC(C2)CC1C3 [OZ300] | 71 (≈ 0.18 µM) |
| O=C(C[C@H]1CC[C@]2(CC1)OO[C@]1(O2)C2CC3CC(C2)CC1C3)NCc1ccccn1 [OZ295] | 0.44 (≈ 0.00107 µM) |
